Measurements: the supplement of paper PMC10307832

How the values were obtained:
Assay in all cases: relative viability (nuclei count vs DMSO), 5 days (fraction); higher = more cells survive
NCI-H520 = test system: NCI-H520
How it was run: (§1)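 Values are medians from duplicate plates. Each reflects relative viability, defined as the nuclei count of treated wells over that of vehicle wells. Lung cancer cell lines in 1536-well plates were pin-tool dosed one day after seeding with one drug alone or with a fixed anchor-drug dose plus five library-drug doses (not always all listed) in √10 steps, then fixed, stained and imaged at 4× after 5 days.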

NCI-H1650 = test system: NCI-H1650
How it was run: as §1

NCI-H1793 = test system: NCI-H1793
How it was run: as §1

NCI-H2347 = test system: NCI-H2347
How it was run: as §1

NCI-H1993 = test system: NCI-H1993
How it was run: as §1

NCI-H2228 = test system: NCI-H2228
How it was run: as §1

LC-2-ad = test system: LC-2-ad
How it was run: as §1

BEN = test system: BEN
How it was run: as §1

LU99A = test system: LU99A
How it was run: as §1

NCI-H1355 = test system: NCI-H1355
How it was run: as §1

NCI-H650 = test system: NCI-H650
How it was run: as §1

A-427 = test system: A-427
How it was run: as §1

EKVX = test system: EKVX
How it was run: as §1

NCI-H23 = test system: NCI-H23
How it was run: as §1

NCI-H1666 = test system: NCI-H1666
How it was run: as §1

NCI-H838 = test system: NCI-H838
How it was run: as §1

SW 1573 = test system: SW 1573
How it was run: as §1

LOU-NH91 = test system: LOU-NH91
How it was run: as §1

LCLC-97TM1 = test system: LCLC-97TM1
How it was run: as §1

PC-3 [JPC-3] = test system: PC-3 [JPC-3]
How it was run: as §1

NCI-H460 = test system: NCI-H460
How it was run: as §1

RERF-LC-KJ = test system: RERF-LC-KJ
How it was run: as §1

NCI-H1915 = test system: NCI-H1915
How it was run: as §1

Which results are given for `O=C(O)CCCCC(CCSCc1ccccc1)SCc1ccccc1` (stereo not given) [CPI-613] + Cc1cc(Nc2cc(N3CCN(C)CC3)nc(Sc3ccc(NC(=O)C4CC4)cc3)n2)n[nH]1 [Tozasertib] (partner 0.1 µM)?
relative viability (NCI-H520; first compound 5 µM): 0.42; relative viability (NCI-H520; first compound 15.81 µM): 0.378; relative viability (NCI-H520; first compound 50 µM): 0.352; relative viability (NCI-H520; first compound 158.11 µM): 0.48; relative viability (NCI-H520; first compound 500 µM): 0.375; relative viability (NCI-H1650; first compound 5 µM): 0.441; relative viability (NCI-H1650; first compound 15.81 µM): 0.321; relative viability (NCI-H1650; first compound 50 µM): 0.417; relative viability (NCI-H1650; first compound 158.11 µM): 0.0645; relative viability (NCI-H1650; first compound 500 µM): 0.0151; relative viability (NCI-H1793; first compound 5 µM): 0.297; relative viability (NCI-H1793; first compound 15.81 µM): 0.281; relative viability (NCI-H1793; first compound 50 µM): 0.308; relative viability (NCI-H1793; first compound 158.11 µM): 0.149; relative viability (NCI-H1793; first compound 500 µM): 0.0274; relative viability (NCI-H2347; first compound 5 µM): 0.526; relative viability (NCI-H2347; first compound 15.81 µM): 0.561; relative viability (NCI-H2347; first compound 50 µM): 0.566; relative viability (NCI-H2347; first compound 158.11 µM): 0.552; relative viability (NCI-H2347; first compound 500 µM): 0.524; relative viability (NCI-H1993; first compound 5 µM): 0.631; relative viability (NCI-H1993; first compound 15.81 µM): 0.669; relative viability (NCI-H1993; first compound 50 µM): 0.559; relative viability (NCI-H1993; first compound 158.11 µM): 0.507; relative viability (NCI-H1993; first compound 500 µM): 0.426; relative viability (NCI-H2228; first compound 5 µM): 0.304; relative viability (NCI-H2228; first compound 15.81 µM): 0.204; relative viability (NCI-H2228; first compound 50 µM): 0.236; relative viability (NCI-H2228; first compound 158.11 µM): 0.146; relative viability (NCI-H2228; first compound 500 µM): 0.112; relative viability (LC-2-ad; first compound 5 µM): 0.45; relative viability (LC-2-ad; first compound 15.81 µM): 0.398; relative viability (LC-2-ad; first compound 50 µM): 0.459; relative viability (LC-2-ad; first compound 158.11 µM): 0.267; relative viability (LC-2-ad; first compound 500 µM): 0.0577; relative viability (BEN; first compound 5 µM): 0.532; relative viability (BEN; first compound 15.81 µM): 0.47; relative viability (BEN; first compound 50 µM): 0.495; relative viability (BEN; first compound 158.11 µM): 0.535; relative viability (BEN; first compound 500 µM): 0.408; relative viability (LU99A; first compound 5 µM): 0.299; relative viability (LU99A; first compound 15.81 µM): 0.298; relative viability (LU99A; first compound 50 µM): 0.293; relative viability (LU99A; first compound 158.11 µM): 0.343; relative viability (LU99A; first compound 500 µM): 0.34; relative viability (NCI-H1355; first compound 5 µM): 0.541; relative viability (NCI-H1355; first compound 15.81 µM): 0.512; relative viability (NCI-H1355; first compound 50 µM): 0.508; relative viability (NCI-H1355; first compound 158.11 µM): 0.314; relative viability (NCI-H1355; first compound 500 µM): 0.112; relative viability (NCI-H650; first compound 5 µM): 0.702; relative viability (NCI-H650; first compound 15.81 µM): 0.623; relative viability (NCI-H650; first compound 50 µM): 0.699; relative viability (NCI-H650; first compound 158.11 µM): 0.546; relative viability (NCI-H650; first compound 500 µM): 0.586; relative viability (A-427; first compound 5 µM): 0.204; relative viability (A-427; first compound 15.81 µM): 0.193; relative viability (A-427; first compound 50 µM): 0.203; relative viability (A-427; first compound 158.11 µM): 0.124; relative viability (A-427; first compound 500 µM): 0.0991; relative viability (EKVX; first compound 5 µM): 0.384; relative viability (EKVX; first compound 15.81 µM): 0.401; relative viability (EKVX; first compound 50 µM): 0.366; relative viability (EKVX; first compound 158.11 µM): 0.368; relative viability (EKVX; first compound 500 µM): 0.41; relative viability (NCI-H23; first compound 5 µM): 0.348; relative viability (NCI-H23; first compound 15.81 µM): 0.284; relative viability (NCI-H23; first compound 50 µM): 0.337; relative viability (NCI-H23; first compound 158.11 µM): 0.223; relative viability (NCI-H23; first compound 500 µM): 0.0061; relative viability (NCI-H1666; first compound 5 µM): 0.558; relative viability (NCI-H1666; first compound 15.81 µM): 0.634; relative viability (NCI-H1666; first compound 50 µM): 0.614; relative viability (NCI-H1666; first compound 158.11 µM): 0.233; relative viability (NCI-H1666; first compound 500 µM): 0.155; relative viability (NCI-H838; first compound 5 µM): 0.271; relative viability (NCI-H838; first compound 15.81 µM): 0.252; relative viability (NCI-H838; first compound 50 µM): 0.249; relative viability (NCI-H838; first compound 158.11 µM): 0.194; relative viability (NCI-H838; first compound 500 µM): 0.104; relative viability (SW 1573; first compound 5 µM): 0.232; relative viability (SW 1573; first compound 15.81 µM): 0.196; relative viability (SW 1573; first compound 50 µM): 0.15; relative viability (SW 1573; first compound 158.11 µM): 0.103; relative viability (SW 1573; first compound 500 µM): 0.0651; relative viability (LOU-NH91; first compound 5 µM): 0.651; relative viability (LOU-NH91; first compound 15.81 µM): 0.611; relative viability (LOU-NH91; first compound 50 µM): 0.62; relative viability (LOU-NH91; first compound 158.11 µM): 0.684; relative viability (LOU-NH91; first compound 500 µM): 0.643; relative viability (LCLC-97TM1; first compound 5 µM): 0.209; relative viability (LCLC-97TM1; first compound 15.81 µM): 0.204; relative viability (LCLC-97TM1; first compound 50 µM): 0.247; relative viability (LCLC-97TM1; first compound 158.11 µM): 0.138; relative viability (LCLC-97TM1; first compound 500 µM): 0.0361; relative viability (PC-3 [JPC-3]; first compound 5 µM): 0.81; relative viability (PC-3 [JPC-3]; first compound 15.81 µM): 0.808; relative viability (PC-3 [JPC-3]; first compound 50 µM): 0.762; relative viability (PC-3 [JPC-3]; first compound 158.11 µM): 0.499; relative viability (PC-3 [JPC-3]; first compound 500 µM): 0.498; relative viability (NCI-H460; first compound 5 µM): 0.497; relative viability (NCI-H460; first compound 15.81 µM): 0.28; relative viability (NCI-H460; first compound 50 µM): 0.457; relative viability (NCI-H460; first compound 158.11 µM): 0.371; relative viability (NCI-H460; first compound 500 µM): 0.418; relative viability (RERF-LC-KJ; first compound 5 µM): 0.536; relative viability (RERF-LC-KJ; first compound 15.81 µM): 0.513; relative viability (RERF-LC-KJ; first compound 50 µM): 0.454; relative viability (RERF-LC-KJ; first compound 158.11 µM): 0.188; relative viability (RERF-LC-KJ; first compound 500 µM): 0.0899; relative viability (NCI-H1915; first compound 5 µM): 0.44; relative viability (NCI-H1915; first compound 15.81 µM): 0.4; relative viability (NCI-H1915; first compound 50 µM): 0.322; relative viability (NCI-H1915; first compound 158.11 µM): 0.241; relative viability (NCI-H1915; first compound 500 µM): 0.111
